Source: patent US8859569B2, “Substituted annellated pyrimidines and use thereof” (Bayer Pharma Aktiengesellschaft, priority 2011, dated 2014)

Columns and labels:
[1] = target: T1, human phosphodiesterase 5 (PDE-5) (Homo sapiens, UniProt O76074); experiment: Inhibition of human phosphodiesterase 5 (PDE-5), SPA assay; type: biochemical; conditions: PDE-5 preparation from human platelets, [8-3H]cGMP substrate
T1 construct: PDE-5 preparations are obtained from human platelets by lysis; from tissue; host or cells: human platelets
In short: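 PDE-5 partially purified from human platelets by Mono Q chromatography, diluted so under 70% of [8-3H]cGMP (0.025 μCi) converted. Compounds at 4 μM to 0.0018 μM final, Tris-HCl pH 7.5 with MgCl2, 60 min at room temperature. Yttrium SPA beads stop reaction; IC50 from concentration–inhibition plots.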

[2] = target: T2, recombinant guanylate cyclase reporter cell line (Rattus norvegicus, UniProt P19686+P20595); experiment: Action on recombinant guanylate cyclase reporter cell line; type: cell-based
T2 construct: expressed in transfected cells
T2 sequence (P20595 1-619): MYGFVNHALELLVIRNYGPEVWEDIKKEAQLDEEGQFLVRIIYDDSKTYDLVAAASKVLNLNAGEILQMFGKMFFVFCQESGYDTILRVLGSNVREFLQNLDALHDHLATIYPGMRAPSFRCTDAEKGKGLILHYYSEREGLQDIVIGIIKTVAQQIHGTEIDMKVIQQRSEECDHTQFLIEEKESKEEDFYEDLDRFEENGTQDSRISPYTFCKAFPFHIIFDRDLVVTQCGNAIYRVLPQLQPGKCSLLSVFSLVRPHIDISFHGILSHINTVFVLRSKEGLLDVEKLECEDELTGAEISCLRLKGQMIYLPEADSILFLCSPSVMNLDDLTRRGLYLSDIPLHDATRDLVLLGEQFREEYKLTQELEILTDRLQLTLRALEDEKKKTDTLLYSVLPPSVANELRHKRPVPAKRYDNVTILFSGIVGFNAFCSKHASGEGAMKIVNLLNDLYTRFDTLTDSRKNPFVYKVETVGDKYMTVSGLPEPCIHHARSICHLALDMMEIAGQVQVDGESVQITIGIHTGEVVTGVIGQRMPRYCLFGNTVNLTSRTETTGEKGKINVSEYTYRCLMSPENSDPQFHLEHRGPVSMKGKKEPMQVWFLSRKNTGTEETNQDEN
T2 sequence (P19686 1-690): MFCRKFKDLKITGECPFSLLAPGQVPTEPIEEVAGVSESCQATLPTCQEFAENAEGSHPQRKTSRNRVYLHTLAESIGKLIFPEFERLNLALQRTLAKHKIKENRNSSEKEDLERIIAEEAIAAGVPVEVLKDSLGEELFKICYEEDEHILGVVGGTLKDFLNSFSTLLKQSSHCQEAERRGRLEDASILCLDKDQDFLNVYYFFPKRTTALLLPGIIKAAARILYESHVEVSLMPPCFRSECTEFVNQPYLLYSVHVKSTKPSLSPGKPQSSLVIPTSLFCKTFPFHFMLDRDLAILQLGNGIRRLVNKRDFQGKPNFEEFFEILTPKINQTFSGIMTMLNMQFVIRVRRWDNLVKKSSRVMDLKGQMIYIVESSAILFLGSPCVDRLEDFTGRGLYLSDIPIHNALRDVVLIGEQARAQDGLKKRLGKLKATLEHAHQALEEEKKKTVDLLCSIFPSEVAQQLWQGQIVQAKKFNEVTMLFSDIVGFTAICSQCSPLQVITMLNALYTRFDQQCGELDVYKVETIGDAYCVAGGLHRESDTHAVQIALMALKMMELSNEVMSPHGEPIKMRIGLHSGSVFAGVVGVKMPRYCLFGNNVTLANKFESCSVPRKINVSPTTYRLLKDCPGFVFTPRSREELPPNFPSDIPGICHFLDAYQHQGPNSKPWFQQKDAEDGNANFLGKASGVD
Protocol: B-2. Action on Recombinant Guanylate Cyclase Reporter Cell Line
The cellular action of the compounds according to the invention is determined on a recombinant guanylate cyclase reporter cell line, as described in F. Wunder et al., Anal. Biochem. 339, 104-112 (2005).

aorta rings = experiment: Vessel-relaxing action in vitro (aorta rings, phenylephrine contraction); conditions: concentration required to reduce phenylephrine-induced contraction of rabbit aorta rings by 50%
Protocol: B-1. Vessel-relaxing Action in vitro
Rabbits are stunned with a blow on the back of the neck and exsanguinated. The aorta is removed, freed from adhering tissue, separated into rings with a width of 1.5 mm, and placed individually, with preloading, in 5-ml organ baths with carbogen-gassed Krebs-Henseleit solution at 37° C. with the following composition (mM in each case): sodium chloride: 119; potassium chloride: 4.8; calcium chloride dihydrate: 1; magnesium sulphate heptahydrate: 1.4; potassium dihydrogen phosphate: 1.2; sodium hydrogen carbonate: 25; glucose: 10. The contraction force is recorded with Statham UC2 cells, amplified and digitized via an A/D converter (DAS-1802 HC, Keithley Instruments Munich) and recorded in parallel on a continuous-line recorder. To produce contraction, phenylephrine is added to the bath cumulatively in increasing concentration. After several control cycles, the test substance is added in increasing dosage in each subsequent pass and the level of contraction is compared with the level of contraction reached in the immediately preceding pass. This is used for calculating the concentration that is required to reduce the level of the control value by 50% (IC50 value). The standard application volume is 5 μl, and the proportion of DMSO in the bath solution corresponds to 0.1%.

| IC50 [1] [nM] | MEC (minimal effective concentration) [2] [μm] | IC50 (aorta rings; Oryctolagus cuniculus) [nM] | IC50 (aorta rings) [nM] | SMILES |
| --- | --- | --- | --- | --- |
| 170 | 0.3 | 520 | – | CC1C(=O)NCCN1c1nc(-c2nn(Cc3ccccc3F)c3ncccc23)nc2c1C(C)(C)C(=O)N2 (stereo not drawn) [Example 92, 2-[1-(2-Fluorobenzyl)-1H-pyrazolo[3,4-b]pyridin-3-yl]-5,5-dimethyl-4-(2-methyl-3-oxopiperazin-1-yl)-5,7-dihydro-6H-pyrrolo[2,3-d]pyrimidin-6-one] |
| 26 | 0.01 | – | 601 | CC1(C)C(=O)Nc2nc(-c3nn(Cc4ccccc4F)c4ncc(F)cc34)nc(NCC(O)C(F)(F)F)c21 (single isomer, unassigned) [Example 96-2, 2-[5-Fluoro-1-(2-fluorobenzyl)-1H-pyrazolo[3,4-b]pyridin-3-yl]-5,5-dimethyl-4-[(3,3,3-trifluoro-2-hydroxypropyl)amino]-5,7-dihydro-6H-pyrrolo[2,3-d]pyrimidin-6-one] |
| 63 | 0.1 | 1350 | – | CC1(C)C(=O)Nc2nc(-c3nn(Cc4ccccc4F)c4ncc(F)cc34)nc(NCC3CC3(F)F)c21 (stereo not drawn) [Example 97, 4-{[(2,2-Difluorocyclopropyl)methyl]amino}-2-[5-fluoro-1-(2-fluorobenzyl)-1H-pyrazolo[3,4-b]pyridin-3-yl]-5,5-dimethyl-5,7-dihydro-6H-pyrrolo[2,3-d]pyrimidin-6-one] |

The next lines start with the compound.

| SMILES | IC50 [1] [nM] | MEC (minimal effective concentration) [2] [μm] | IC50 (aorta rings; Oryctolagus cuniculus) [nM] | IC50 (aorta rings) [nM] |
| --- | --- | --- | --- | --- |
| CC1(C)C(=O)Nc2nc(-c3nn(Cc4ncccc4F)c4ncc(F)cc34)nc(NCC3CC3)c21 [Example 17, 4-[(Cyclopropylmethyl)amino]-2-{5-fluoro-1-[(3-fluoropyridin-2-yl)methyl]-1H-pyrazolo[3,4-b]pyridin-3-yl}-5,5-dimethyl-5,7-dihydro-6H-pyrrolo[2,3-d]pyrimidin-6-one] | 24 | 0.1 | 200 | – |
| CC1(C)C(=O)Nc2nc(-c3nn(Cc4ccccc4F)c4ncc(F)cc34)nc(N3CC(F)C3)c21 [Example 8, 4-(3-Fluoroazetidin-1-yl)-2-[5-fluoro-1-(2-fluorobenzyl)-1H-pyrazolo[3,4-b]pyridin-3-yl]-5,5-dimethyl-5,7-dihydro-6H-pyrrolo[2,3-d]pyrimidin-6-one] | 400 | 0.3 | 309 | – |
| CC1(C)C(=O)Nc2nc(-c3nn(Cc4ccccc4F)c4ncccc34)nc(N3CC(C(F)(F)F)CC3=O)c21 (stereo not drawn) [Example 25, 2-[1-(2-Fluorobenzyl)-1H-pyrazolo[3,4-b]pyridin-3-yl]-5,5-dimethyl-4-[2-oxo-4-(trifluoromethyl)pyrrolidin-1-yl]-5,7-dihydro-6H-pyrrolo[2,3-d]pyrimidin-6-one] | 320 | 0.1 | 501 | – |
| CC1(C)C(=O)Nc2nc(-c3nn(Cc4ccccc4F)c4ncc(F)cc34)nc(NC(C3CC3)C3CC3)c21 [Example 9, 4-[(Dicyclopropylmethyl)amino]-2-[5-fluoro-1-(2-fluorobenzyl)-1H-pyrazolo[3,4-b]pyridin-3-yl]-5,5-dimethyl-5,7-dihydro-6H-pyrrolo[2,3-d]pyrimidin-6-one] | 230 | 0.1 | 21000 | – |
| CC1(C)C(=O)Nc2nc(-c3nn(Cc4ccccc4F)c4c3CCC4)nc(NCCC(F)(F)F)c21 [Example 20, 2-[1-(2-Fluorobenzyl)-1,4,5,6-tetrahydrocyclopenta[c]pyrazol-3-yl]-5,5-dimethyl-4-[(3,3,3-trifluoropropyl)amino]-5,7-dihydro-6H-pyrrolo[2,3-d]pyrimidin-6-one] | 900 | 0.3 | 1870 | – |
| CC1(C)C(=O)Nc2nc(-c3nn(Cc4ccccc4F)c4ncccc34)nc(-n3cc(C(F)(F)F)cn3)c21 [Example 29, 2-[1-(2-Fluorobenzyl)-1H-pyrazolo[3,4-b]pyridin-3-yl]-5,5-dimethyl-4-[4-(trifluoromethyl)-1H-pyrazol-1-yl]-5,7-dihydro-6H-pyrrolo[2,3-d]pyrimidin-6-one] | > 4000 | 1.0 | 11400 | – |
